From publication PMC8171112 (Bioorganic & medicinal chemistry, 2021)
One block for each compound: values may come before it.

Tests used:
[1] = tested on: TET1; conditions: read-out: IC50 TET1; cited from earlier work
[2] = tested on: TET2; conditions: read-out: IC50 TET2; Figure 3 insert; cited from earlier work
[3] = target: catalytic domain of TET2 (TET2CD) (Homo sapiens, UniProt Q6N021); assay: ELISA of 5hmC for TET2 activity, cell free; format: biochemical; conditions: for potency relative to NOG: cell free ELISA, more potent than NOG (Figure 1)
[4] = tested on: 16 other α-KG/Fe(II) dependent enzymes; conditions: cited from earlier work
[5] = target: TET2CD (Homo sapiens, UniProt Q6N021); assay: LC-MS/MS analysis to probe TET2CD modification; conditions: TET2CD 10 μM, 2a 100 μM, 2 h, trypsin and chymotrypsin digestion
[6] = tested on: TET1; conditions: 10 mM, 0.1 mM α-KG; cited from earlier work
[7] = tested on: TET2; conditions: 10 mM, 0.1 mM α-KG; cited from earlier work
[8] = tested on: TET enzyme (5hmC/5mC) in THP1 cells; format: cell-based; conditions: prodrug esters, three concentrations, 12 h
[9] = tested on: wild type (WT)-TET2; conditions: cited from earlier work

SMILES: Nc1nc(=O)n(-c2cccc(-c3ccccc3)c2)cc1Cl [Bobcat 339]
IC50 [1]: 33 µM

potency relative to NOG [3]: approximately 2 fold
SMILES: C=C(CC(O)C(=O)O)C(=O)O (centres unmarked) [2a, 2-Hydroxy-4-methylenepentanedioic acid]
IC50 [2]: 9.4 µM | inhibition of 16 other α-KG/Fe(II) dependent enzymes [4]: does not inhibit | covalent modification of +160 Da of TET2CD peptides [5]: did not observed covalent modification of +160 Da of any peptide

potency relative to NOG [3]: approximately 2 fold
SMILES: C=C(C[C@H](O)C(=O)O)C(=O)O [16S, (S)-2-Hydroxy-4-methylenepentanedioic acid]

SMILES: O=C(O)CC[C@H](O)C(=O)O [S-2-HG]
inhibition of TET1 activity [6]: inhibiting most of TET1 and TET2 activity | inhibition of TET2 activity [7]: inhibiting most of TET1 and TET2 activity

SMILES: COC(=O)C(=O)CC(C)C(=O)OC (centres unmarked) [21a]
TET inhibition in THP1 cells, dot blot [8]: no inhibition

SMILES: O=C(O)CCC(=O)C(=O)O [α-KG, α-ketoglutarate, reference compound]
EC50 ([3]; read-out: EC50, TET2CD dioxygenase activity response to α-KG, ELISA, Figure 5A): 3.5 µM

SMILES: CC(C)CC(NC(=O)C(=O)O)C(=O)O (centres unmarked) [NOG-5]
effect on wild type (WT)-TET2 [9]: no effect

SMILES: COC(=O)CCC(=O)C(=O)OC [DMKG, dimethyl-2-ketoglutarate, reference compound]
TET inhibition in THP1 cells, dot blot [8]: no inhibition

potency relative to NOG [3]: approximately 2 fold
SMILES: C=C(C[C@@H](O)C(=O)O)C(=O)O [16R, (R)-2-Hydroxy-4-methylenepentanedioic acid]

SMILES: C=C(CC(Cl)C(=O)OC)C(=O)OC (centres unmarked) [compound 9, Dimethyl 2-chloro-4-methylenepentanedioate]
TET inhibition in THP1 cells, dot blot [8]: good activity consistent with 1a
